Measured values as given in patent publication US20240116910A1, “Heterocycles as WIP1 Inhibitors” (PMV Pharmaceuticals, Inc., priority 2022, published 2024).

Biological target: recombinant His-tag Wip1(2-420) protein (amino acids #2-420) (Homo sapiens (Human), UniProt O15297)
Test: Wip1(2-420) phosphatase enzyme FDP assay
Assay type: biochemical
Conditions: fluorescein diphosphate (FDP) substrate, RT 2 hours, fluorescence Ex485/Em535; read-out: WIP1 (Truncated 2-420) FDP Assay: IC50

Chain of recombinant His-tag Wip1(2-420) protein (amino acids #2-420) (O15297 2-420): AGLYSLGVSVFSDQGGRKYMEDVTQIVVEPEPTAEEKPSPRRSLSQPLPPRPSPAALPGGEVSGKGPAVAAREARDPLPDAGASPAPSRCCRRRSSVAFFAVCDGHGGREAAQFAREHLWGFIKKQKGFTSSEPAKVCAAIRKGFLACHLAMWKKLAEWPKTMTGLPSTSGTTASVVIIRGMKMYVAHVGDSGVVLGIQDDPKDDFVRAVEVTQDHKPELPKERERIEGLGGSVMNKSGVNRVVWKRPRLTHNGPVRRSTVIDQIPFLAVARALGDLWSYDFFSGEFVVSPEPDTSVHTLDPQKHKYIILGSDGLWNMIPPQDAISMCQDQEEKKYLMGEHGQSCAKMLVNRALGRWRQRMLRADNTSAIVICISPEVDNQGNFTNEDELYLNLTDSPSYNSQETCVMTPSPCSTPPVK

Row | Structure (SMILES) | IC50
1 | Cc1ncc(Cl)cc1N[C@@H](C)c1ccc(C(=O)N[C@@H](CC2CCCC2)C(=O)Nc2ccnc(Cl)c2)s1 [Compound 143, (2S)-2-({5-[(1S)-1-[(5-chloro-2-methylpyridin-3-yl)amino]ethyl]thiophen-2-yl}formamido)-N-(2-chloropyridin-4-yl)-3-cyclopentylpropanamide] | 5 nM
2 | C[C@@H](Nc1cc(Cl)cnc1-c1cccc(Cl)c1)c1ccc(C(=O)N[C@@H](CC2CCCC2)C(=O)NC2CC2)s1 [Compound 230, (2S)-2-({5-[(1R)-1-{[5-chloro-2-(3-chlorophenyl)pyridin-3-yl]amino}ethyl]thiophen-2-yl}formamido)-3-cyclopentyl-N-cyclopropylpropanamide] | 196 nM
3 | C[C@@H](Nc1cc(Cl)cnc1C(F)(F)F)c1ccc(C(=O)N[C@@H](CC2CCCC2)C(=O)NC2CC2)s1 [Compound 190, (2S)-2-({5-[(1R)-1-{[5-chloro-2-(trifluoromethyl)pyridin-3-yl]amino}ethyl]thiophen-2-yl}formamido)-3-cyclopentyl-N-cyclopropylpropanamide] | 224 nM
4 | C[C@H](Nc1cc(Cl)cnc1-c1cccc(Cl)c1)c1ccc(C(=O)N[C@@H](CC2CCCC2)C(=O)NC2CC2)s1 [Compound 231, (2S)-2-({5-[(1S)-1-{[5-chloro-2-(3-chlorophenyl)pyridin-3-yl]amino}ethyl]thiophen-2-yl}formamido)-3-cyclopentyl-N-cyclopropylpropanamide] | 8 nM
5 | Cc1ncc(Cl)cc1N[C@@H](C)c1ccc(C(=O)N[C@@H](CC2CC3CC3C2)C(=O)NC2CC2)s1 (stereo partly drawn) [Compound 201, (2S)-3-{bicyclo[3.1.0]hexan-3-yl}-2-({5-[(1S)-1-[(5-chloro-2-methylpyridin-3-yl)amino]ethyl]thiophen-2-yl}formamido)-N-cyclopropylpropanamide] | 7 nM
6 | Cc1ncc(Cl)cc1N[C@@H](C)c1ccc(C(=O)N[C@@H](CC2CCCC2)C(=O)Nc2ccc3ncccc3c2)s1 [Compound 243, (2S)-2-({5-[(1S)-1-[(5-chloro-2-methylpyridin-3-yl)amino]ethyl]thiophen-2-yl}formamido)-3-cyclopentyl-N-(quinolin-6-yl)propanamide] | 4 nM
7 | Cc1ncc(Cl)cc1NC(Cc1cnn(C)c1)c1ccc(C(=O)N[C@@H](CC2CCCC2)C(=O)NC2CC2)s1 (stereo partly drawn) [Compound 188, (2S)-2-[(5-{1-[(5-chloro-2-methylpyridin-3-yl)amino]-2-(1-methyl-1H-pyrazol-4-yl)ethyl}thiophen-2-yl)formamido]-3-cyclopentyl-N-cyclopropylpropanamide] | 11 nM
8 | C[C@H](Nc1cc(Cl)cnc1C(=O)O)c1ccc(C(=O)N[C@@H](CC2CCCC2)C(=O)NC2CC2)s1 [Compound 269, 5-chloro-3-{[(1S)-1-(5-{[(1S)-2-cyclopentyl-1-(cyclopropylcarbamoyl)ethyl]carbamoyl}thiophen-2-yl)ethyl]amino}pyridine-2-carboxylic acid] | 14 nM
9 | Cc1ncc(Cl)cc1N[C@@H](C)c1ccc(C(=O)N[C@@H](CC2CCCC2)C(=O)NC2CCC(O)C2)s1 (stereo partly drawn) [Compound 263, (2S)-2-({5-[(1S)-1-[(5-chloro-2-methylpyridin-3-yl)amino]ethyl]thiophen-2-yl}formamido)-3-cyclopentyl-N-(3-hydroxycyclopentyl)propanamide] | 13 nM
10 | Cc1ncc(Cl)cc1N[C@@H](C)c1ccc(C(=O)N[C@@H](CC2CCC3CC32)C(=O)N[C@H]2C[C@H](F)C2)s1 (stereo partly drawn) [Compound 116, (2S)-3-{bicyclo[3.1.0]hexan-2-yl}-2-({5-[(1S)-1-[(5-chloro-2-methylpyridin-3-yl)amino]ethyl]thiophen-2-yl}formamido)-N-[(1r,3r)-3-fluorocyclobutyl]propanamide] | 10 nM
11 | COCc1ncc(Cl)cc1N[C@@H](C)c1ccc(C(=O)N[C@@H](CC2CCCC2)C(=O)NC2CC2)s1 [Compound 226, (2S)-2-({5-[(1S)-1-{[5-chloro-2-(methoxymethyl)pyridin-3-yl]amino}ethyl]thiophen-2-yl}formamido)-3-cyclopentyl-N-cyclopropylpropanamide] | 11 nM
12 | CC(Nc1cc(Cl)cnc1C(N)=O)c1ccc(C(=O)N[C@@H](CC2CCCC2)C(=O)Nc2cnn(C)c2)s1 (stereo partly drawn) [Compound 173, 5-chloro-3-{[1-(5-{[(1S)-2-cyclopentyl-1-[(1-methyl-1H-pyrazol-4-yl)carbamoyl]ethyl]carbamoyl}thiophen-2-yl)ethyl]amino}pyridine-2-carboxamide] | 8 nM
13 | C[C@H](Nc1cc(Cl)cnc1C(N)=O)c1ccc(C(=O)N[C@@H](CC2CCCC2)C(=O)NC2CC2)s1 [Compound 228, 5-chloro-3-{[(1S)-1-(5-{[(1S)-2-cyclopentyl-1-(cyclopropylcarbamoyl)ethyl]carbamoyl}thiophen-2-yl)ethyl]amino}pyridine-2-carboxamide] | 5 nM
14 | C[C@H](c1ccc(C(=O)N[C@@H](CC2CCCC2)C(=O)NC2CC2)s1)N(C)c1cncc(Cl)c1 [Compound 90, (2S)-2-({5-[(1R)-1-[(5-chloropyridin-3-yl)(methyl)amino]ethyl]thiophen-2-yl}formamido)-3-cyclopentyl-N-cyclopropylpropanamide] | 11 nM
15 | COc1cccc(-c2ncc(Cl)cc2N[C@H](C)c2ccc(C(=O)N[C@@H](CC3CCCC3)C(=O)NC3CC3)s2)c1 [Compound 268, (2S)-2-({5-[(1R)-1-{[5-chloro-2-(3-methoxyphenyl)pyridin-3-yl]amino}ethyl]thiophen-2-yl}formamido)-3-cyclopentyl-N-cyclopropylpropanamide] | 482 nM
16 | Cc1ncc(Cl)cc1N[C@@H](C)c1ccc(C(=O)N[C@@H](C[C@@H]2CCC3CC32)C(=O)NC23CC(C2)C3)s1 (stereo partly drawn) [Compound 245, (2S)-N-{bicyclo[1.1.1]pentan-1-yl}-3-[(2S)-bicyclo[3.1.0]hexan-2-yl]-2-({5-[(1S)-1-[(5-chloro-2-methylpyridin-3-yl)amino]ethyl]thiophen-2-yl}formamido)propanamide] | 10 nM
17 | Cc1ncc(Cl)cc1N[C@@H](C)c1ccc(C(=O)N[C@@H](CC2CCCC2)C(=O)NC2CCC(C#N)C2)s1 (stereo partly drawn) [Compound 115, (2S)-2-({5-[(1S)-1-[(5-chloro-2-methylpyridin-3-yl)amino]ethyl]thiophen-2-yl}formamido)-N-(3-cyanocyclopentyl)-3-cyclopentylpropanamide] | 11 nM
18 | C[C@@H](Nc1cc(Cl)cnc1C(=O)O)c1ccc(C(=O)N[C@@H](CC2CCCC2)C(=O)NC2CC2)s1 [Compound 274, 5-chloro-3-{[(1R)-1-(5-{[(1S)-2-cyclopentyl-1-(cyclopropylcarbamoyl)ethyl]carbamoyl}thiophen-2-yl)ethyl]amino}pyridine-2-carboxylic acid] | 811 nM

Second part, the molecule after the results:

Row | IC50 | Structure (SMILES)
19 | 12 nM | Cc1ncc(Cl)cc1N[C@@H](Cc1ccccc1)c1ccc(C(=O)N[C@@H](CC2CCCC2)C(=O)NC23CC(C2)C3)s1 [Compound 216, (2S)-N-{bicyclo[1.1.1]pentan-1-yl}-2-({5-[(1S)-1-[(5-chloro-2-methylpyridin-3-yl)amino]-2-phenylethyl]thiophen-2-yl}formamido)-3-cyclopentylpropanamide]
20 | 15 nM | CC(Nc1cc(Cl)cnc1C(N)=O)c1ccc(C(=O)N[C@@H](CC2CC3CC3C2)C(=O)Nc2cnn(C)c2)s1 (stereo partly drawn) [Compound 146, 3-{[1-(5-{[(1S)-2-{bicyclo[3.1.0]hexan-3-yl}-1-[(1-methyl-1H-pyrazol-4-yl)carbamoyl]ethyl]carbamoyl}thiophen-2-yl)ethyl]amino}-5-chloropyridine-2-carboxamide]
21 | 4870 nM | Cc1ncc(Cl)cc1N[C@@H](C)c1ccc(C(=O)N[C@H](CC23CCC(CC2)CC3)C(=O)NC2CC2)s1 [Compound 255, (2R)-3-{bicyclo[2.2.2]octan-1-yl}-2-({5-[(1S)-1-[(5-chloro-2-methylpyridin-3-yl)amino]ethyl]thiophen-2-yl}formamido)-N-cyclopropylpropanamide]
22 | 6 nM | COCCn1cc(NC(=O)[C@H](CC2CCCC2)NC(=O)c2ccc([C@H](C)Nc3cc(Cl)cnc3C)s2)cn1 [Compound 220, (2S)-2-({5-[(1S)-1-[(5-chloro-2-methylpyridin-3-yl)amino]ethyl]thiophen-2-yl}formamido)-3-cyclopentyl-N-[1-(2-methoxyethyl)-1H-pyrazol-4-yl]propanamide]
23 | 12 nM | Cc1ncc(Cl)cc1N[C@@H](C)c1ccc(C(=O)N[C@@H](CC2CCC3CC32)C(=O)NC23CC(C#N)(C2)C3)s1 (stereo partly drawn) [Compound 111, (2S)-3-{bicyclo[3.1.0]hexan-2-yl}-2-({5-[(1S)-1-[(5-chloro-2-methylpyridin-3-yl)amino]ethyl]thiophen-2-yl}formamido)-N-{3-cyanobicyclo[1.1.1]pentan-1-yl}propanamide]
24 | 7 nM | COc1ccccc1-c1ncc(Cl)cc1N[C@@H](C)c1ccc(C(=O)N[C@@H](CC2CCCC2)C(=O)NC2CC2)s1 [Compound 242, (2S)-2-({5-[(1S)-1-{[5-chloro-2-(2-methoxyphenyl)pyridin-3-yl]amino}ethyl]thiophen-2-yl}formamido)-3-cyclopentyl-N-cyclopropylpropanamide]
25 | 11 nM | Cc1ncc(Cl)cc1N[C@@H](C)c1ccc(C(=O)N[C@@H](CC2CCCC2)C(=O)Nc2ccc3c(c2)N(C)CCC3)s1 [Compound 167, (2S)-2-({5-[(1S)-1-[(5-chloro-2-methylpyridin-3-yl)amino]ethyl]thiophen-2-yl}formamido)-3-cyclopentyl-N-(1-methyl-1,2,3,4-tetrahydroquinolin-7-yl)propanamide]
26 | 4 nM | Cc1ncc(Cl)cc1N[C@@H](C)c1ccc(C(=O)N[C@@H](CC2CCCCC2)C(=O)NC2CC2)s1 [Compound 107, (2S)-2-({5-[(1S)-1-[(5-chloro-2-methylpyridin-3-yl)amino]ethyl]thiophen-2-yl}formamido)-3-cyclohexyl-N-cyclopropylpropanamide]
27 | 19 nM | CC(Nc1cc(Cl)cnc1C(F)(F)F)c1ccc(C(=O)N[C@@H](CC2CCCC2)C(=O)NC2CC2)s1 (stereo partly drawn) [Compound 202, (2S)-2-{[5-(1-{[5-chloro-2-(trifluoromethyl)pyridin-3-yl]amino}ethyl)thiophen-2-yl]formamido}-3-cyclopentyl-N-cyclopropylpropanamide]
